Earlier results on 1 molecule are cited in PMC10597649, “Effect of Astragali radix extract on pharmacokinetic behavior of dapagliflozin in healthy and type 2 diabetic rats” (Frontiers in Pharmacology, 2023).

This series deals with P-gp. Set-up: method as in Huang et al., 2012. The following applies: ref Huang et al., 2012; cited from earlier work.

For the molecule `CC(=O)O[C@H]1[C@H](O[C@H]2CC[C@]34C[C@]35CC[C@]3(C)[C@@H]([C@@]6(C)CC[C@@H](C(C)(C)O)O6)[C@@H](O)C[C@@]3(C)[C@@H]5C[C@H](O[C@@H]3O[C@H](CO)[C@@H](O)[C@H](O)[C@H]3O)[C@H]4C2(C)C)OC[C@@H](O)[C@@H]1O` [Astragaloside II], the P-gp inhibition result is “potent P-gp inhibitor”.
